Measurements reported in US11998539B2, “Substituted aminoquinolones as DGKalpha inhibitors for immune activation” (Bayer Aktiengesellschaft, priority 2019, dated 2024).
pIC50: −log10 of the molar value.

These compounds were tested against DGKα (Homo sapiens (Human), UniProt P23743) (assay: Human DGKα kinase activity inhibition assay (ADP-Glo)). Details: recombinant full-length human DGKα, 55 μM ATP, 7 μM 1,2-dioleoyl-sn-glycerol, read-out: IC50 values of examples in in vitro human DGKa kinase activity inhibition assays.
DGKα, sequence (P23743 other isoform, or with tags, fused parts or gaps): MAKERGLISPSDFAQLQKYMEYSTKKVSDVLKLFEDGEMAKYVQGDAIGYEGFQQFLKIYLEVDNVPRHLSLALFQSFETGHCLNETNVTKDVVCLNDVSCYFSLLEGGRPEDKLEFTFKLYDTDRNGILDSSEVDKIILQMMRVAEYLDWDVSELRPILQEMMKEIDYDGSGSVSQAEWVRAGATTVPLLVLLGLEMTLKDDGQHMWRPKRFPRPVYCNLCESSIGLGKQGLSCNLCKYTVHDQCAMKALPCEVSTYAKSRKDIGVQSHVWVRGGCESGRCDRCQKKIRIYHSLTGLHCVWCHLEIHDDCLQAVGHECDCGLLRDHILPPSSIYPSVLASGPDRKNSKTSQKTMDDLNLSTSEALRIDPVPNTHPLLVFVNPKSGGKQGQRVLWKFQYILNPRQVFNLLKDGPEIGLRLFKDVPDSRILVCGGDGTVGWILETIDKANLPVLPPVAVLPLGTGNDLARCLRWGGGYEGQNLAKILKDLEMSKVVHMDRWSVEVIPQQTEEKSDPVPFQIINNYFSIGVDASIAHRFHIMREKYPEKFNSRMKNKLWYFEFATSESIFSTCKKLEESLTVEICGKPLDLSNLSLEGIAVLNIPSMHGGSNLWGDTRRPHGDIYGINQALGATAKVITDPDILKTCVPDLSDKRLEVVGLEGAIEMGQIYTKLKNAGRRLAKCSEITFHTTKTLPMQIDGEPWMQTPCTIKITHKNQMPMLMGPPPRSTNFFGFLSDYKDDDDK
Format: biochemical
Procedure, shortened: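 Recombinant full-length human DGKα (C-terminal FLAG, from insect cells) phosphorylated 1,2-dioleoyl-sn-glycerol presented in octyl-glucopyranoside micelles. ADP formed was quantified by ADP-Glo luminescence. Compounds were added from 100-fold DMSO stocks.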
`COc1ccc2c(N3CCC(C)(c4nc5cc(C)ccc5o4)CC3)c(C#N)c(=O)n(C)c2c1` [Example 248, 7-methoxy-1-methyl-4-[4-methyl-4-(5-methyl-1,3-benzoxazol-2-yl)piperidin-1-yl]-2-oxo-1,2-dihydroquinoline-3-carbonitrile] showed a pIC50 of 8.16. `Cc1ccc2oc(C3(C)CCN(c4c(C#N)c(=O)n(C)c5cc(C#N)ccc45)CC3)nc2c1` [Example 249, 1-methyl-4-[4-methyl-4-(5-methyl-1,3-benzoxazol-2-yl)piperidin-1-yl]-2-oxo-1,2-dihydroquinoline-3,7-dicarbonitrile] showed a pIC50 of 8.14. With `Cc1ccc2oc(C3(C)CCN(c4c(C#N)c(=O)n(C)c5cc(C6CC6)ccc45)CC3)nc2c1` [Example 250, 7-cyclopropyl-1-methyl-4-[4-methyl-4-(5-methyl-1,3-benzoxazol-2-yl)piperidin-1-yl]-2-oxo-1,2-dihydroquinoline-3-carbonitrile] the pIC50 was 8.04. `Cc1ccc2oc(C3(C)CCN(c4c(C#N)c(=O)n(C)c5cc(OCC6(C#N)CC6)ccc45)CC3)nc2c1` [Example 251, 7-[(1-cyanocyclopropyl)methoxy]-1-methyl-4-[4-methyl-4-(5-methyl-1,3-benzoxazol-2-yl)piperidin-1-yl]-2-oxo-1,2-dihydroquinoline-3-carbonitrile] showed a pIC50 of 8.03. `Cc1ccc2oc(C3(C)CCN(c4c(C#N)c(=O)n(C)c5cc(C6CC(F)(F)C6)ccc45)CC3)nc2c1` [Example 252, 7-(3,3-difluorocyclobutyl)-1-methyl-4-[4-methyl-4-(5-methyl-1,3-benzoxazol-2-yl)piperidin-1-yl]-2-oxo-1,2-dihydroquinoline-3-carbonitrile] was tested, and the pIC50 was 7.89. In the case of `Cc1ccc2oc(C3(C)CCN(c4c(C#N)c(=O)n(C)c5c(OC6COC6)cccc45)CC3)nc2c1` [Example 253, 1-methyl-4-[4-methyl-4-(5-methyl-1,3-benzoxazol-2-yl)piperidin-1-yl]-8-[(oxetan-3-yl)oxy]-2-oxo-1,2-dihydroquinoline-3-carbonitrile], the pIC50 was 7.85. `COc1ccc2c(N3CCC(c4nc5cc(F)c(F)cc5o4)CC3)c(C#N)c(=O)n(C)c2c1` [Example 254, 4-[4-(5,6-difluoro-1,3-benzoxazol-2-yl)piperidin-1-yl]-7-methoxy-1-methyl-2-oxo-1,2-dihydroquinoline-3-carbonitrile] was tested, and the pIC50 was 7.82. In the case of `Cc1ccc2c(N3CCC(c4ccccc4)CC3)c(C#N)c(=O)n(C)c2c1` [Example 255, 1,7-dimethyl-2-oxo-4-(4-phenylpiperidin-1-yl)-1,2-dihydroquinoline-3-carbonitrile], the pIC50 was 7.74. `COc1ccc2c(N3CCC(c4ccccc4)CC3)c(C#N)c(=O)n(C)c2c1` [Example 256, 7-methoxy-1-methyl-2-oxo-4-(4-phenylpiperidin-1-yl)-1,2-dihydroquinoline-3-carbonitrile] showed a pIC50 of 7.60. In the case of `CCCOc1ccc2c(N3CCC(C)(c4nc5cc(C)ccc5o4)CC3)c(C#N)c(=O)n(C)c2c1` [Example 257, 1-methyl-4-[4-methyl-4-(5-methyl-1,3-benzoxazol-2-yl)piperidin-1-yl]-2-oxo-7-propoxy-1,2-dihydroquinoline-3-carbonitrile], the pIC50 was 7.59. `COc1ccc2c(N3CCC(c4nc5ccc(Cl)cc5o4)CC3)c(C#N)c(=O)n(C)c2c1` [Example 258, 4-[4-(6-chloro-1,3-benzoxazol-2-yl)piperidin-1-yl]-7-methoxy-1-methyl-2-oxo-1,2-dihydroquinoline-3-carbonitrile] was tested, and the pIC50 was 7.54. For `COc1ccc2c(N3CCC(c4nc5cc(Cl)ccc5o4)CC3)c(C#N)c(=O)n(C)c2c1` [Example 259, 4-[4-(5-chloro-1,3-benzoxazol-2-yl)piperidin-1-yl]-7-methoxy-1-methyl-2-oxo-1,2-dihydroquinoline-3-carbonitrile], the pIC50 was 7.54. `COc1cccc2c(N3CCC(C)(c4nc5cc(C)ccc5o4)CC3)c(C#N)c(=O)n(C)c12` [Example 260, 8-methoxy-1-methyl-4-[4-methyl-4-(5-methyl-1,3-benzoxazol-2-yl)piperidin-1-yl]-2-oxo-1,2-dihydroquinoline-3-carbonitrile] gave a pIC50 of 7.46. `Cc1ccc2oc(C3(C)CCN(c4c(C#N)c(=O)n(C)c5cc(C6COC6)ccc45)CC3)nc2c1` [Example 261, 1-methyl-4-[4-methyl-4-(5-methyl-1,3-benzoxazol-2-yl)piperidin-1-yl]-7-(oxetan-3-yl)-2-oxo-1,2-dihydroquinoline-3-carbonitrile] was tested, and the pIC50 was 7.46. In the case of `Cc1ccc2oc(C3(C)CCN(c4c(C#N)c(=O)n(C)c5c(OC6CC6)cccc45)CC3)nc2c1` [Example 262, 8-(cyclopropyloxy)-1-methyl-4-[4-methyl-4-(5-methyl-1,3-benzoxazol-2-yl)piperidin-1-yl]-2-oxo-1,2-dihydroquinoline-3-carbonitrile], the pIC50 was 7.44. Work on `Cc1ccc2oc(C3(C)CCN(c4c(C#N)c(=O)n(C)c5c(C)cccc45)CC3)nc2c1` [Example 263, 1,8-dimethyl-4-[4-methyl-4-(5-methyl-1,3-benzoxazol-2-yl)piperidin-1-yl]-2-oxo-1,2-dihydroquinoline-3-carbonitrile] yielded a pIC50 of 7.38. `Cn1c(=O)c(C#N)c(N2CCC(c3ccccc3)CC2)c2ccc(OC3CC3)cc21` [Example 264, 7-(cyclopropyloxy)-1-methyl-2-oxo-4-(4-phenylpiperidin-1-yl)-1,2-dihydroquinoline-3-carbonitrile] gave a pIC50 of 7.31. With `COCCc1cccc2oc(C3CCN(c4c(C#N)c(=O)n(C)c5ccccc45)CC3)nc12` [Example 265, 4-{4-[4-(2-methoxyethyl)-1,3-benzoxazol-2-yl]piperidin-1-yl}-1-methyl-2-oxo-1,2-dihydroquinoline-3-carbonitrile] the pIC50 was 7.31. `CC[C@H](C)c1ccc2c(N3CCC(C)(c4nc5cc(C)ccc5o4)CC3)c(C#N)c(=O)n(C)c2c1` [Example 266, 7-[(2S)-butan-2-yl]-1-methyl-4-[4-methyl-4-(5-methyl-1,3-benzoxazol-2-yl)piperidin-1-yl]-2-oxo-1,2-dihydroquinoline-3-carbonitrile] was tested, and the pIC50 was 7.28. Work on `Cc1ccc2oc(C3(C)CCN(c4c(C#N)c(=O)n(C)c5ccc(OC6COC6)cc45)CC3)nc2c1` [Example 267, 1-methyl-4-[4-methyl-4-(5-methyl-1,3-benzoxazol-2-yl)piperidin-1-yl]-6-[(oxetan-3-yl)oxy]-2-oxo-1,2-dihydroquinoline-3-carbonitrile] yielded a pIC50 of 7.19. In the case of `Cc1ccc2oc(C3(C)CCN(c4c(C#N)c(=O)n(C)c5ccc(OCC6(C#N)CC6)cc45)CC3)nc2c1` [Example 268, 6-[(1-cyanocyclopropyl)methoxy]-1-methyl-4-[4-methyl-4-(5-methyl-1,3-benzoxazol-2-yl)piperidin-1-yl]-2-oxo-1,2-dihydroquinoline-3-carbonitrile], the pIC50 was 7.19. In the case of `Cc1ccc2oc(C3(C)CCN(c4c(C#N)c(=O)n(C)c5cc(N6C[C@H](O)CC6=O)ccc45)CC3)nc2c1` [Example 269, 7-[(4R)-4-hydroxy-2-oxopyrrolidin-1-yl]-1-methyl-4-[4-methyl-4-(5-methyl-1,3-benzoxazol-2-yl)piperidin-1-yl]-2-oxo-1,2-dihydroquinoline-3-carbonitrile], the pIC50 was 7.15. For `CCCOc1ccc2c(N3CCC(c4nc5ccccc5s4)CC3)c(C#N)c(=O)n(C)c2c1` [Example 270, 4-[4-(1,3-benzothiazol-2-yl)piperidin-1-yl]-1-methyl-2-oxo-7-propoxy-1,2-dihydroquinoline-3-carbonitrile], the pIC50 was 7.14.
